Reference: patent US9790203B2, “Inhibitor compounds of phosphodiesterase type 10A” (ABBVIE DEUTSCHLAND GMBH & CO. KG, priority 2012, dated 2017)

Experiments:
[1] = Microsomal half-life / microsomal clearance, rat liver microsomes; format: in vitro ADME; settings: 0.5 μM test substance, 0.25 mg microsomal protein/ml, pH 7.4, 37° C.
Procedure: (§1) The metabolic stability of the compounds of the invention was determined in the following assay.
(§2) The test substances were incubated in a concentration of 0.5 μM as follows:
(§3) 0.5 μM test substance are preincubated together with liver microsomes from different species (from rat, human or other species) (0.25 mg of microsomal protein/ml) in 0.05 M potassium phosphate buffer of pH 7.4 in microtiter plates at 37° C. for 5 min. The reaction is started by adding NADPH (1 mg/mL). After 0, 5, 10, 15, 20 and 30 min, 50 μl aliquots are removed, and the reaction is immediately stopped and cooled with the same volume of acetonitrile. The samples are frozen until analyzed. The remaining concentration of undegraded test substance is determined by MSMS. The half-life (T1/2) is determined from the gradient of the signal of test substance/unit time plot, it being possible to calculate the half-life of the test substance, assuming first order kinetics, from the decrease in the concentration of the compound with time. The microsomal clearance (mCl) is calculated from mCl=ln 2/T1/2/(content of microsomal protein in mg/ml)×1000 [ml/min/mg] (modified from references: Di, The Society for Biomoleculur Screening, 2003, 453-462; Obach, DMD, 1999 vol 27. N 11, 1350-1359).

[2] = Microsomal half-life / microsomal clearance, human liver microsomes; format: in vitro ADME; settings: 0.5 μM test substance, 0.25 mg microsomal protein/ml, pH 7.4, 37° C.
Procedure: as §1, §2, §3

PDE10A = PDE10A (Homo sapiens (Human), UniProt Q9Y233); test: Measurement of PDE activity (HTRF cAMP kit, recombinant PDE); format: biochemical; settings: recombinant PDE10, 20 nM cyclic nucleotide substrate, 60 minutes at 29 C
Chain of PDE10A (Q9Y233 whole entry, species assumed, canonical isoform): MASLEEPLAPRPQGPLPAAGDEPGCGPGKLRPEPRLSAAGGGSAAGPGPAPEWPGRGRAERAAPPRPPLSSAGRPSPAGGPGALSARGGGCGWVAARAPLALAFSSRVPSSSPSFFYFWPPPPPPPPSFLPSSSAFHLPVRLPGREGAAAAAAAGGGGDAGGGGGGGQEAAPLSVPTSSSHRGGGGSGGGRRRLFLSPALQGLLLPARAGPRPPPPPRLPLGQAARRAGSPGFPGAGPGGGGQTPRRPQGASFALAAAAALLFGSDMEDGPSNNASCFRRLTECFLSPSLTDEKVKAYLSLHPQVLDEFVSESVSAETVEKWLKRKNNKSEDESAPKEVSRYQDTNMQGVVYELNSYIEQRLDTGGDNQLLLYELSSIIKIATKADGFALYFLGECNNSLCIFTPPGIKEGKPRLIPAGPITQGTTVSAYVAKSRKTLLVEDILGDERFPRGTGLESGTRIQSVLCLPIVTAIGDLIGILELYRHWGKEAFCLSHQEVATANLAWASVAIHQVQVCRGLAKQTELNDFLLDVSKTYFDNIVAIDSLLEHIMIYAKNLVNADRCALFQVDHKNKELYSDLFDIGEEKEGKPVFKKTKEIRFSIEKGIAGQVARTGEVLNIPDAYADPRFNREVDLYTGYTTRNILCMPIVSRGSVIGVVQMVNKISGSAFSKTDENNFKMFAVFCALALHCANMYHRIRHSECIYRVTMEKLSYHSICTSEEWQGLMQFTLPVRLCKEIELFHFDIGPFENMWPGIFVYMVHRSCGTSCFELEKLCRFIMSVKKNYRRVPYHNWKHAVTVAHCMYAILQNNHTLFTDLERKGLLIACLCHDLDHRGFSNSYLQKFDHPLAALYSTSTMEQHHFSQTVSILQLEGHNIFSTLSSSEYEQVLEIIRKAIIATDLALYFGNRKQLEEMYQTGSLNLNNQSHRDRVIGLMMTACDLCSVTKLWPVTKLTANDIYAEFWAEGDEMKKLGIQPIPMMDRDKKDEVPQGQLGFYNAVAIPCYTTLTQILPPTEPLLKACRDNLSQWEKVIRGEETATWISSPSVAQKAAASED
Procedure: The recombinant PDE proteins are used in in vitro enzymatic reaction for measurement of PDE activity. These recombinant proteins, including PDE10A (human, rat and mouse PDE10) and isoforms of PDEs 1, 3, 4, and 5, were purchased from commercial vendor BPS Bioscience. The enzymatic activity of PDEs was determined by cAMP measurement kit from CisBio (IBA) using HTRF technology.
The PDE enzymatic reaction was carried out in assay buffer (20 mM Tris-HCl pH7.5, 10 mM MgCl2, 0.1% bovine serum albumin) containing enzyme and substrate. […] The substrate cyclic nucleotide (cAMP or cGMP) concentration used in the assay was 20 nM for PDE10, and 100 nM for other PDEs. The inhibitory effect of compound was determined by incubating various concentration of inhibitor in the enzymatic assay. […] Next, the compound at varying concentration was mixed with PDE enzyme. The reaction was initiated by addition of cyclic nucleotide substrate, and incubated for 60 minutes at 29 C. The reaction was stopped by addition of lysis buffer from assay kit. The cAMP-d2 and anti-cAMP cryptate in the lysis buffer detected the level of cAMP left from the PDE hydrolysis reaction. […] Thus, IC50 value of inhibitor can be obtained by plotting inhibitor concentration against PDE activity at that concentration.

Row | Rat mCl [1] | Human mCl [2] | IC50 (PDE10A) [nM] | Structure (SMILES)
1 | ++ (<100 μl min^−1 mg^−1) | ++ (<100 μl min^−1 mg^−1) | < 100 | Cn1cc(-c2ccncc2)c(-c2ccc(C#Cc3ccccn3)cc2)n1 [Example 2, 2-((4-(1-methyl-4-(pyridin-4-yl)-1H-pyrazol-3-yl)phenyl)ethynyl)pyridine]
2 | ++ (<100 μl min^−1 mg^−1) | ++ (<100 μl min^−1 mg^−1) | < 100 | Cc1ccc(C#Cc2ccc(-c3nn(C)cc3-c3ccncc3)cc2)nc1 [Example 3, 5-methyl-2-((4-(1-methyl-4-(pyridin-4-yl)-1H-pyrazol-3-yl)phenyl)ethynyl)pyridine]
3 | ++ (<100 μl min^−1 mg^−1) | ++ (<100 μl min^−1 mg^−1) | < 100 | Cn1cc(-c2ccncc2)c(-c2ccc(C#Cc3ccc(F)cn3)cc2)n1 [Example 5, 5-Fluoro-2-((4-(1-methyl-4-(pyridin-4-yl)-1H-pyrazol-3-yl)phenyl)ethynyl)pyridine]
4 | ++ (<100 μl min^−1 mg^−1) | ++ (<100 μl min^−1 mg^−1) | < 100 | Cc1cccnc1C#Cc1ccc(-c2nn(C)cc2-c2ccncc2)cc1 [Example 6, 3-Methyl-2-((4-(1-methyl-4-(pyridin-4-yl)-1H-pyrazol-3-yl)phenyl)ethynyl)pyridine]
5 | ++ (<100 μl min^−1 mg^−1) | ++ (<100 μl min^−1 mg^−1) | < 100 | Cn1cc(-c2ccncc2)c(-c2ccc(C#Cc3nccn3C)cc2)n1 [Example 7, 4-(1-methyl-3-(4-((1-methyl-1H-imidazol-2-yl)ethynyl)phenyl)-1H-pyrazole-4-yl)pyridine]
6 | ++ (<100 μl min^−1 mg^−1) | ++ (<100 μl min^−1 mg^−1) | < 100 | Cc1ccnc(C#Cc2ccc(-c3nn(C)cc3-c3ccncc3)cc2)c1 [Example 8, 4-Methyl-2-((4-(1-methyl-4-(pyridin-4-yl)-1H-pyrazol-3-yl)phenyl)ethynyl)pyridine]
7 | ++ (<100 μl min^−1 mg^−1) | ++ (<100 μl min^−1 mg^−1) | < 100 | Cc1cccc(C#Cc2ccc(-c3nn(C)cc3-c3ccncc3)cc2)n1 [Example 9, 2-Methyl-6-((4-(1-methyl-4-(pyridin-4-yl)-1H-pyrazol-3-yl)phenyl)ethynyl)pyridine]
8 | ++ (<100 μl min^−1 mg^−1) | ++ (<100 μl min^−1 mg^−1) | < 100 | Cn1cc(-c2ccncc2)c(-c2ccc(C#Cc3ccc4ccccc4n3)cc2)n1 [Example 12, 2-((4-(1-methyl-4-(pyridin-4-yl)-1H-pyrazol-3-yl)phenyl)ethynyl)quinoline]
9 | ++ (<100 μl min^−1 mg^−1) | ++ (<100 μl min^−1 mg^−1) | < 100 | Cn1cc(-c2ccncc2)c(-c2ccc(C#Cc3ccc4ncccc4n3)cc2)n1 [Example 13, 2-[2-[4-[1-methyl-4-(4-pyridyl)pyrazol-3-yl]phenyl]ethynyl]-1,5-naphthyridine]
10 | ++ (<100 μl min^−1 mg^−1) | ++ (<100 μl min^−1 mg^−1) | < 100 | Cn1cc(-c2ccncc2)c(-c2ccc(C#Cc3cn4ccccc4n3)cc2)n1 [Example 14, 2-[2-[4-[1-methyl-4-(4-pyridyl)pyrazol-3-yl]phenyl]ethynyl]imidazo[1,2-a]pyridine]
11 | ++ (<100 μl min^−1 mg^−1) | ++ (<100 μl min^−1 mg^−1) | < 100 | Cn1cc(-c2ccncc2)c(-c2ccc(C#Cc3ccc4cc[nH]c4n3)cc2)n1 [Example 15, 6-[2-[4-[1-methyl-4-(4-pyridyl)pyrazol-3-yl]phenyl]ethynyl]-1H-pyrrolo[2,3-b]pyridine]
12 | ++ (<100 μl min^−1 mg^−1) | ++ (<100 μl min^−1 mg^−1) | < 100 | Cc1cc(C#Cc2ccc(-c3nn(C)cc3-c3ccncc3)cc2)nc2ccccc12 [Example 16, 4-methyl-2-[2-[4-[1-methyl-4-(4-pyridyl)pyrazol-3-yl]phenyl]ethynyl]quinoline]
13 | ++ (<100 μl min^−1 mg^−1) | ++ (<100 μl min^−1 mg^−1) | < 100 | COc1cccnc1C#Cc1ccc(-c2nn(C)cc2-c2ccncc2)cc1 [Example 21, 3-methoxy-2-[2-[4-[1-methyl-4-(4-pyridyl)pyrazol-3-yl]phenyl]ethynyl]pyridine]

Second part, the compound before the results:

Row | Structure (SMILES) | Rat mCl [1] | Human mCl [2] | IC50 (PDE10A) [nM]
14 | CCCn1cc(C#Cc2ccc(-c3nn(C)cc3-c3ccncc3)cc2)cn1 [Example 4, 4-(1-methyl-3-(4-((1-propyl-1H-pyrazol-4-yl)ethynyl)phenyl)-1H-pyrazole-4-yl)pyridine] | – | ++ (<100 μl min^−1 mg^−1) | –
15 | Cn1cc(-c2ccncc2)c(-c2ccc(C#Cc3nccs3)cc2)n1.O=C(O)C(F)(F)F [Example 17, 2-[2-[4-[1-methyl-4-(4-pyridyl)pyrazol-3-yl]phenyl]ethynyl]thiazole; 2,2,2-trifluoroacetic acid] | ++ (<100 μl min^−1 mg^−1) | ++ (<100 μl min^−1 mg^−1) | 100 to 200
16 | Cn1cc(-c2ccncc2)c(-c2ccc(C#Cc3cnc4ccccc4n3)cc2)n1.O=C(O)C(F)(F)F [Example 18, 2-[2-[4-[1-methyl-4-(4-pyridyl)pyrazol-3-yl]phenyl]ethynyl]quinoxaline; 2,2,2-trifluoroacetic acid] | ++ (<100 μl min^−1 mg^−1) | ++ (<100 μl min^−1 mg^−1) | < 100
17 | Cc1cccc(C#Cc2c(-c3ccncc3)nc3n2CCC3)n1.O=C(O)C(F)(F)F [Example 19, 3-[2-(6-methyl-2-pyridyl)ethynyl]-2-(4-pyridyl)-6,7-dihydro-5H-pyrrolo[1,2-a]imidazole; 2,2,2-trifluoroacetic acid] | + (100-220 μl min^−1 mg^−1) | + (100-220 μl min^−1 mg^−1) | –
18 | COc1cccc(C#Cc2ccc(-c3nn(C)cc3-c3ccncc3)cc2)n1.O=C(O)C(F)(F)F [Example 20, 2-methoxy-6-[2-[4-[1-methyl-4-(4-pyridyl)pyrazol-3-yl]phenyl]ethynyl]pyridine; 2,2,2-trifluoroacetic acid] | ++ (<100 μl min^−1 mg^−1) | ++ (<100 μl min^−1 mg^−1) | < 100
19 | Cc1cccc(C#Cc2ccc(-c3c(-c4ccncc4)nc4n3CCC4)cc2)n1 [Example 23, 3-[4-[2-(6-methyl-2-pyridyl)ethynyl]phenyl]-2-(4-pyridyl)-6,7-dihydro-5H-pyrrolo[1,2-a]imidazole] | ++ (<100 μl min^−1 mg^−1) | ++ (<100 μl min^−1 mg^−1) | 100 to 200
20 | Cc1cccc(C#Cc2ccc(-c3nn(C)cc3-c3cn[nH]c3)cc2)n1 [Example 24, 2-methyl-6-[2-[4-[1-methyl-4-(1H-pyrazol-4-yl)pyrazol-3-yl]phenyl]ethynyl]pyridine] | ++ (<100 μl min^−1 mg^−1) | ++ (<100 μl min^−1 mg^−1) | 200 to 500
21 | Cc1cccc(C#Cc2ccc(-c3nn(C)cc3-c3cncnc3)cc2)n1 [Example 25, 5-[1-methyl-3-[4-[2-(6-methyl-2-pyridyl)ethynyl]phenyl]pyrazol-4-yl]pyrimidine] | – | – | 100 to 200
22 | Cc1cccc(C#Cc2ccc(-c3c(-c4ccncc4)cnn3C)cc2)n1 [Example 26, 2-methyl-6-[2-[4-[2-methyl-4-(4-pyridyl)pyrazol-3-yl]phenyl]ethynyl]pyridine] | ++ (<100 μl min^−1 mg^−1) | ++ (<100 μl min^−1 mg^−1) | < 100
23 | Cc1cccc(C#Cc2ccc(-c3nn(C)cc3-c3ccnn3C)cc2)n1.Cl [Example 27, 2-methyl-6-[2-[4-[1-methyl-4-(2-methylpyrazol-3-yl)pyrazol-3-yl]phenyl]ethynyl]-pyridine hydrochloride] | + (100-220 μl min^−1 mg^−1) | ++ (<100 μl min^−1 mg^−1) | 100 to 200
24 | Cc1cccc(C#Cc2ccc(-c3nn(C)cc3-c3ccnnc3)cc2)n1 [Example 28, 4-[1-methyl-3-[4-[2-(6-methyl-2-pyridyl)ethynyl]phenyl]pyrazol-4-yl]pyridazine] | – | – | < 100
25 | COc1ccc(-c2cn(C)nc2-c2ccc(C#Cc3cccc(C)n3)cc2)cc1 [Example 31, 2-[2-[4-[4-(4-methoxyphenyl)-1-methyl-pyrazol-3-yl]phenyl]ethynyl]-6-methylpyridine; 2,2,2-trifluoroacetic acid] | – | – | 100 to 200
